Measured values published in patent US20190125734A1, “COMPOSITION FOR TREATING OR PREVENTING ATOPIC DERMATITIS” (NANOEGG Research Laboratories, Inc., priority 2016, published 2019).
Entries after “also recorded” stand apart in the source; their conditions may differ.

Experiments:
[1] = system: mice with atopic dermatitis outbreak (NC/Nga, mite antigen Biostir AD); experiment: Atopic dermatitis score with simultaneous mite antigen induction and test formulation application, Example 5; type: in vivo, mouse; settings: topical 5 times a week for 3 weeks, 12 mM week 1, 24 mM week 2 and thereafter (decamethonium bromide 12 mM, twice a week in last week), induction twice a week
Procedure: (§1) Induction with mite antigens (twice a week) and application of a test formulation (5 times a week) were simultaneously performed for 3 weeks to analyze the effect of suppressing induction of atopic dermatitis. A test formulation was used at 12 mM in week 1, and at 24 mM in week 2 and thereafter. […] A non treatment group (no induction, no application of test formulation) and solvent applied group (with induction, application of purified water) were prepared as controls.
(1) Antagonist and agonist: hexamethonium bromide, suxamethonium chloride (Maruishi Pharmaceutical), and decamethonium bromide (Tokyo Chemical Industry) were used to compare an antagonist and agonist of a nicotinic acetylcholine receptor. […] (3) Number of tertiary amino groups: Hexamethonium bromide has two tertiary amino groups within the molecule. This was compared to hexyltrimethylammonium bromide (Wako Pure Chemical; hereinafter, referred to as Hexyl-TAB) having one tertiary amino group within the molecule and an alkyl group with 6 carbons. (4) Carbon chain length: Hexamethonium bromide was compared with decamethonium bromide (number of carbons 10) which has a carbon chain length that is longer than hexamethonium bromide (number of carbons 6), and compared with tetramethylammonium bromide (Wako Pure Chemical; number of carbons: 1; hereinafter, referred to as TAB), hexyltrimethylammonium bromide (number of carbons: 6; hereinafter, referred to as Hexyl-TAB), and cetyltrimethylammonium bromide (Wako Pure Chemical; number of carbons: 16; hereinafter, referred to as Cetyl-TAB), which have one tertiary amino group within the molecule and a different carbon chain length in the alkyl group.

[2] = Toxicity observed during application, Example 5; type: in vivo, mouse; settings: topical application to NC/Nga mice, 12 mM week 1
Procedure: as §1, with “Mice (NC/Nga, 10 week old) were applied with a mite antigen (Biostir AD) twice a week for 4 weeks to prepare mice with atopic dermatitis outbreak as in Example 1. Induction” for “Induction”, “controls. Scoring was performed in the same manner as Example 1.” for “controls.”

[3] = system: atopic dermatitis model mice (NC/Nga, mite antigen Biostir AD); experiment: Evaluation of drug efficacy after inducing dermatitis (AD score, pictures of the back), Example 1; type: in vivo, mouse; settings: female NC/Nga mice, topical 12 mM, days 3 and 7
Procedure: 10 week old NC/Nga mice (Charles River Laboratories Japan) were used as atopic dermatitis model animals. A mite (Dermatophagoides farina) antigen, i.e., Biostir AD (Wako Pure Chemical), was used to induce dermatitis. Model mice were prepared by the following procedure.
1. The back of mice was shaved. A hair removal cream was used only for the first time. 2. To destroy the skin barrier, 150 μL of 4% SDS was applied and dried for 2 to 3 hours (this step was omitted for the first time). 3. To stimulate immunity, 100 mg of Biostir AD was applied to the back and the left and right auricles of the mice. 4. These steps were performed twice a week.
Scoring was performed according to the method described in the package insert of Biostir AD. Four endpoints were each evaluated as 0 to 3 points. The total score for the endpoints was used as the AD score. The following Table 1 summarizes the scores for each endpoint.
Acridinium bromide (Wako Pure Chemical) and scopolamine hydrobromide trihydrate (Tokyo Chemical Industry) were used as an inhibitor of a muscarinic acetylcholine receptor. Hexamethonium bromide (sigma-aldrich) and dextromethorphan hydrobromide monohydrate (Wako Pure Chemical) were used as an inhibitor of a nicotinic acetylcholine receptor. Dimethyl sulfoxide (DMSO, Wako Pure Chemical), saline (Otsuka Pharmaceutical), and purified water were used as solvents. […]

[4] = system: atopic dermatitis model mice (NC/Nga, mite antigen Biostir AD); experiment: Drug efficacy with dermatitis induction in parallel (AD score, pictures of the back), Example 3; type: in vivo, mouse; settings: male NC/Nga mice, topical 12 mM, days 3, 7, 11
Procedure: Atopic dermatitis model mice were prepared and scored in the same manner as Example 1. The same test formulations as those in Example 1 were used.
Male NC/Nga mice (Charles River Laboratories Japan) induced to have atopic dermatitis were used. A test formulation was applied to the back once a day, 5 days a week (Monday to Friday), for a total of 10 times. 100 μL of the test formulation was applied to the back, and 25 μL was applied to each of the left and right auricles. The back was shaved prior to administration on Monday and Thursday to evaluate dermatitis scores. Atopic dermatitis was then induced only on Mondays every week to maintain dermatitis. Mice were euthanized after 11 days from the initial administration, and then the skin tissue was sampled.

[5] = system: skin of atopic dermatitis patients; experiment: Replica method for goose bump-like skin symptoms, Example 6; type: in vivo, human; settings: 12 mM applied to back part of the neck of atopic dermatitis patients; 5 to 10 minutes after application vs before
Procedure: Hexamethonium (12 mM) was applied to (back part of) the neck of atopic dermatitis patients to obtain replica images of skin before application and after 5 to 10 minutes from application. The replica images were collected by applying silicon resin (SILFLO) so as to cover the skin with outbreak of atopic dermatitis and peeling of the cured silicon from the skin after 5 minutes. Light was irradiated onto the collected replicas from one direction to compare and examine, and take pictures of, the unevenness of the skin surface.

[6] = system: atopic dermatitis model mice (NC/Nga, mite antigen Biostir AD); experiment: Therapeutic effect from oral administration, dermatitis scores, Example 8; type: in vivo, mouse; settings: 150 μL of 60 mM once a day, 5 times a week, total 10 times, day 10
Procedure: 10 week old NC/Nga mice (Charles River Laboratories Japan) were used as atopic dermatitis model animals. A mite antigen (Biostir AD, Wako Pure Chemical) was used to induce dermatitis. Model mice were prepared and scored according to the method described in the package insert of Biostir AD (same as Example 1).
As an inhibitor of a nicotinic acetylcholine receptor, hexamethonium bromide (hereinafter, hexamethonium; sigma-aldrich) was used. The inhibitor was dissolved in purified water and prepared to have a final concentration of 60 mM. Purified water (DW) was used as a negative control.
150 μL of a test formulation was orally administered to atopic dermatitis induced mice once a day, 5 times a week, for a total of 10 times. Dermatitis scores were evaluated after 0 and 10 days from administration. Mean change from day 0 was compared. Atopic dermatitis was induced with mite antigens only on Mondays every week to maintain the symptom.

mast cells = experiment: Activity and migration of mast cells (toluidine blue stain of back skin), Example 2; type: in vivo, mouse; settings: severe area; saline group about 40%
Description: Solifenacin succinate (Tokyo Chemical Industry), acridinium bromide (Wako Pure Chemical) and scopolamine hydrobromide trihydrate (Tokyo Chemical Industry) were used as an inhibitor of a muscarinic acetylcholine receptor. Tubocurarine chloride pentahydrate (Tokyo Chemical Industry), gallamintriethiodide (sigma-aldrich), hexamethonium bromide (sigma-aldrich), dextromethorphan hydrobromide monohydrate (Wako Pure Chemical), and α-bungarotoxin (alomone labs) were used as an inhibitor of a nicotinic acetylcholine receptor. Dimethyl sulfoxide (DMSO, Wako Pure Chemical) saline (Otsuka Pharmaceutical), and purified water were used as solvents.
The back skin of sampled atopic dermatitis model mice was immobilized with neutral formalin and embedded in paraffin. A 4 μm thick tissue segment was prepared therefrom, and mast cells were stained with toluidine blue stain. The stained tissue segment was captured with a microscope. […] The areas of only collagen fiber sites in the tissue segment images were measured (removing areas of the epidermal layer, mast cells, and muscle cells) and compared the mast cell count per unit area to the degree of degranulation.

Compound: C[N+](C)(C)CCCCCCCCCC[N+](C)(C)C [decamethonium bromide, Decamethonium Bromide]
- atopic dermatitis score (mean change) relative to solvent administered group (DW) [1]: reduce atopic dermatitis scores
- atopic dermatitis score (mean change) relative to solvent administered group (DW) ([1]; listed as Decamethonium bromide): action to exacerbate atopic dermatitis was confirmed
- toxicity [2]: strong toxicity

Compound: C[N+](C)(C)CCOC(=O)CCC(=O)OCC[N+](C)(C)C [Suxamethonium bromide, suxamethonium chloride]
- atopic dermatitis score (mean change) relative to solvent administered group (DW) [1]: reduce atopic dermatitis scores

Compound: CCCCCCCCCCCCCCCC[N+](C)(C)C.[Br-] [Cetyl-TAB, Cetyltrimethylammonium bromide]
- atopic dermatitis score (mean change) relative to solvent administered group (DW) [1]: exacerbating action

Compound: Tetramethylammonium Bromide [TAB]
- atopic dermatitis score (mean change) relative to solvent administered group (DW) [1]: effect of suppressing atopic dermatitis

Compound: C[N+](C)(C)CCCCCC[N+](C)(C)C.[Br-].[Br-] [hexamethonium bromide, Hexamethonium Bromide]
- therapeutic effect (AD scores and ΔAD scores) [3]: relatively high therapeutic effect
- therapeutic effect (AD scores and ΔAD scores) [4]: relative high therapeutic effect
- atopic dermatitis score (mean change) relative to solvent administered group (DW) [1]: elevation in atopic dermatitis scores was suppressed
- degree of protrusion of skin pores (replica images) [5]: degree of protrusion of skin pores has subsided to be less goose bump-like
- improvement in dermatitis scores (mean change from day 0) [6]: Improvement in the dermatitis scores was observed

Compound: NCCCCCCN [HMDA, Hexamethylenediamine]
- atopic dermatitis score (mean change) relative to solvent administered group (DW) [1]: An effect of suppression was not found

Compound: COc1cc2c3cc1Oc1cc(ccc1O)C[C@@H]1c4c(cc(OC)c(O)c4Oc4ccc(cc4)C[C@@H]3N(C)CC2)CC[N+]1(C)C [tubocurarine, Tubocurarine chloride pentahydrate]
- ratio of degranulated mast cells to all mast cells (mast cells): about 33%

Compound: CCCCCC[N+](C)(C)C.[Br-] [Hexyl-TAB, Hexyltrimethylammonium Bromide]
- atopic dermatitis score (mean change) relative to solvent administered group (DW) [1]: effect of suppressing atopic dermatitis, although slightly weaker than hexamethonium bromide; also recorded: effect of suppressing atopic dermatitis
